Measurements taken from ChEMBL document CHEMBL1128373, “A-ring ortho-disubstituted aporphine derivatives as potential agonists or antagonists at serotonergic 5-HT1A receptors” (J Med Chem, 1995).
Active and inactive are the calls of the source. The calls are words filed in the database; no cut-off is given here.

Assays:
Assay type in all cases: tissue-based
Conditions in all cases: Cavia porcellus, target entry is the homologue from another species
[1] = target: T1, 5-hydroxytryptamine receptor 1A (Homo sapiens) (UniProt P08908); test: Ability to antagonize electrical induced contractile responses in Guinea pig ileum for 5-HT1A receptor.
T1 sequence (whole entry): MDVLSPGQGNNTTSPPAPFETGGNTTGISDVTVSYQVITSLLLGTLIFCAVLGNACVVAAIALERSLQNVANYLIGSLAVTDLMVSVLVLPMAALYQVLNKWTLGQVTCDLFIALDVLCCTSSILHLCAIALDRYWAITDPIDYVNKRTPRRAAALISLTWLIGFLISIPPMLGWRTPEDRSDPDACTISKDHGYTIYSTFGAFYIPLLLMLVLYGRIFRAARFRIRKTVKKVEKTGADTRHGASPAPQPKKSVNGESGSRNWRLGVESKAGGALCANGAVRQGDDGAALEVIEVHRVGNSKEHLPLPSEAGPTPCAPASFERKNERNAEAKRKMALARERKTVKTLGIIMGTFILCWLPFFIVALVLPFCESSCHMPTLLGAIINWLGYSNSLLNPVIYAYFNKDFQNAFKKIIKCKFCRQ

[2] = target: T1, 5-hydroxytryptamine receptor 1A (Homo sapiens); test: Ability to antagonize Acetylcholine induced contractile responses in Guinea pig ileum for 5-HT1A receptor.
[3] = target: T1, 5-hydroxytryptamine receptor 1A (Homo sapiens); test: Ability to antagonize Acetylcholine induced contractile responses in Guinea pig ileum for 5-HT1A receptor. Inactive at dose level of 1.0 uM
[4] = target: T1, 5-hydroxytryptamine receptor 1A (Homo sapiens); test: Ability to antagonize electrical induced contractile responses in Guinea pig ileum for 5-HT1A receptor; Inactive at dose level of 1.0 uM
[5] = target: T1, 5-hydroxytryptamine receptor 1A (Homo sapiens); test: Ability to antagonize electrical induced contractile responses in Guinea pig ileum for 5-HT1A receptor. Inactive at dose level of 1.0 uM

Row | SMILES | ED50 [1] [µM] | ED50 [2] [µM] | ED50 [3] | ED50 [4] | ED50 [5]
1 | Cc1ccc2c(c1O)-c1cccc3c1[C@@H](C2)N(C)CC3 | 0.05 | – | – | – | –
2 | COc1cc2c(cc1C)-c1cccc3c1C(C2)N(C)CC3 (single isomer, unassigned; (+)) | 5.4 | 24.9 | – | – | –
3 | Cc1cc2c(cc1O)-c1cccc3c1C(C2)N(C)CC3 (single isomer, unassigned; (+)) | – | – | inactive | inactive | –
4 | Cc1cc2c(cc1O)CC1c3c(cccc3-2)CCN1C (single isomer, unassigned; (+)) | – | – | inactive | – | inactive
5 | COc1cc2c(cc1C)-c1cccc3c1C(C2)N(C)CC3 (single isomer, unassigned; (-)) | 5 | 2.7 | – | – | –
6 | Cc1cc2c(cc1O)-c1cccc3c1C(C2)N(C)CC3 (single isomer, unassigned; (-)) | – | – | inactive | – | inactive
7 | Cc1cc2c(cc1O)CC1c3c(cccc3-2)CCN1C (single isomer, unassigned; (-)) | – | – | inactive | – | inactive
8 | COc1cc2c(cc1C)CC1c3c(cccc3-2)CCN1C (stereo in doubt; (+)-9) | 5.9 | 36.6 | – | – | –
9 | COc1cc2c(cc1C)CC1c3c(cccc3-2)CCN1C (stereo in doubt; (-)-9) | 2.6 | 11.4 | – | – | –
